Experimental data from patent US20100168102A9, “Amide Derivatives as Kinase Inhibitors” (Devgen NV, priority 2005, published 2010).
Structures can show the parent of a compound that is named as a salt.

Key:
[1] = target: T1, PKC epsilon (Homo sapiens, UniProt Q02156); assay: Biochemical assay for PKC epsilon (fluorescence polarization, Protein Kinase C Assay Kit, Red); settings: read-out: IC50 μM PKCε
T1 construct: purchased Invitrogen P2282
T1 sequence (Q02156 1-737): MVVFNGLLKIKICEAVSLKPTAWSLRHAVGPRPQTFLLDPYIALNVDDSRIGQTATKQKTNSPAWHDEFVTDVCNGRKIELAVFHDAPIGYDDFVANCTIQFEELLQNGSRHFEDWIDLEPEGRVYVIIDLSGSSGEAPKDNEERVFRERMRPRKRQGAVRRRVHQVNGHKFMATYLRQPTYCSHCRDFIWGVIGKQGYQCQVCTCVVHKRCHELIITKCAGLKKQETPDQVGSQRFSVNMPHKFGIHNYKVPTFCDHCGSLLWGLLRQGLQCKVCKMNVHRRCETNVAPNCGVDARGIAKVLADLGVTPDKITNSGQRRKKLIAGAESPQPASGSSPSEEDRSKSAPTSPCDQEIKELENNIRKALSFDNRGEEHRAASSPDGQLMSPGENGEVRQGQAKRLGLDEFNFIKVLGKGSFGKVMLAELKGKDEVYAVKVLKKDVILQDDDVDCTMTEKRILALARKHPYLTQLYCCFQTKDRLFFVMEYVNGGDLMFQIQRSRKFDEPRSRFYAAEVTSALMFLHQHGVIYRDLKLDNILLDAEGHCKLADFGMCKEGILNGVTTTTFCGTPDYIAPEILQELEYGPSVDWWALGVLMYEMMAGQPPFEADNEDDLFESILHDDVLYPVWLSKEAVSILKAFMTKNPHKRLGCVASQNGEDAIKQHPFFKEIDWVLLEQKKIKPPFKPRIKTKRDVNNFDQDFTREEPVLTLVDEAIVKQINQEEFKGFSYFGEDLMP
In short: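 PKC epsilon at 10 ng/ml final was preincubated 30 min at room temperature with compound in HEPES pH 7.4 with DTT and Triton X-100. ATP/protein substrate was then added in buffer with MgCl2 and CaCl2 for 80 min. The reaction was stopped with EDTA, phosphorylation was detected by fluorescence polarization with rhodamine tracer and anti-phosphoserine antibody, and IC50 values came from curve fits.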

[2] = target: T2, human ROCKα/ROCKII mix (Homo sapiens, UniProt O75116); assay: Biochemical assay for ROCK (fluorescence polarization, ROCK IMAP Kit)
T2 construct: purchased Upstate Biotechnology 14-451
T2 sequence (O75116 11-552 limits assumed): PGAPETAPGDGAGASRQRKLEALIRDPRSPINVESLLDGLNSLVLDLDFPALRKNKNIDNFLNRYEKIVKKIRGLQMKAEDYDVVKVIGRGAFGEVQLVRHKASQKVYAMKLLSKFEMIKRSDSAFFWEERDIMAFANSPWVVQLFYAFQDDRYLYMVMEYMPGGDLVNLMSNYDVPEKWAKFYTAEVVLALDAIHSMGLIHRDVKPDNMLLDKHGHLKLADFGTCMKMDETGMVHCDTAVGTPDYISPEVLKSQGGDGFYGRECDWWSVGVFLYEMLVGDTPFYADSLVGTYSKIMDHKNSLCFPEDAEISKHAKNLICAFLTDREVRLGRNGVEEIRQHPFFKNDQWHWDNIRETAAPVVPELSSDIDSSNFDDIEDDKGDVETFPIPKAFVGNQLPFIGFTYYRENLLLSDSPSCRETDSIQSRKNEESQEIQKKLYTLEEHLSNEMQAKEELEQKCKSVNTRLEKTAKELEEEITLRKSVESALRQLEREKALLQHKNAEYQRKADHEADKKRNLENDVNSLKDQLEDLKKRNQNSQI

| IC50 [1] | IC50 [2] | SMILES |
| --- | --- | --- |
| < 0.05 µM | < 0.05 µM | N[C@H](CC(=O)N[C@@H]1COc2ccccc21)c1ccc(C(=O)Nc2ccncc2)cc1 [Compound 405, 4-{(R)-1-Amino-2-[(S)-(2,3-dihydro-benzofuran-3-yl)carbamoyl]-ethyl}-N-pyridin-4-yl-benzamide] |
| 0.05 to 0.5 µM | 0.05 to 0.5 µM | N[C@H](CC(=O)N[C@H]1COc2ccccc21)c1ccc(C(=O)Nc2ccncc2)cc1 [Compound 406, 4-{(R)-1-Amino-2-[(R)-(2,3-dihydro-benzofuran-3-yl)carbamoyl]-ethyl}-N-pyridin-4-yl-benzamide] |
| < 0.05 µM | 0.05 to 0.5 µM | N[C@H](CNC(=O)C1(c2ccc(F)cc2)CCCC1)c1ccc(C(=O)Nc2ccncc2)cc1 [Compound 417, 4-((S)-1-Amino-2-{[1-(4-fluoro-phenyl)-cyclopentanecarbonyl]-amino}-ethyl)-N-pyridin-4-yl-benzamide dihydrochloric acid salt] |
| 0.05 to 0.5 µM | 0.5 to 5 µM | N[C@@H](CNC(=O)C1(c2ccc(F)cc2)CCCC1)c1ccc(C(=O)Nc2ccncc2)cc1 [Compound 418, 4-((R)-1-Amino-2-{[1-(4-fluoro-phenyl)-cyclopentanecarbonyl]-amino}-ethyl)-N-pyridin-4-yl-benzamide dihydrochloric acid salt] |
| < 0.05 µM | 0.05 to 0.5 µM | CC(C)(C(=S)NCC(N)c1ccc(C(=O)Nc2ccncc2)cc1)c1ccc(F)cc1 (centres unmarked) [Compound 419, 4-{1-Amino-2-[2-(4-fluoro-phenyl)-2-methyl-thiopropionylamino]-ethyl}-N pyridin-4-yl-benzamide dihydrochloric acid salt] |
| 5 to 50 µM | 0.5 to 5 µM | Cc1ccccc1CC(=O)N(C)CC(N)c1ccc(C(=O)Nc2ccncc2)cc1 (centres unmarked) [Compound 422, 4-{1-Amino-2-[methyl-(2-o-tolyl-acetyl)-amino]-ethyl}-N-pyridin-4-yl-benzamide] |
| 5 to 50 µM | 0.5 to 5 µM | Cc1cccc(CC(=O)N(C)CC(N)c2ccc(C(=O)Nc3ccncc3)cc2)c1 (centres unmarked) [Compound 423, 4-{1-Amino-2-[methyl-(2-m-tolyl-acetyl)-amino]-ethyl}-N-pyridin-4-yl-benzamide] |
| 5 to 50 µM | 0.5 to 5 µM | Cc1ccc(CC(=O)N(C)CC(N)c2ccc(C(=O)Nc3ccncc3)cc2)cc1 (centres unmarked) [Compound 424, 4-{1-Amino-2-[methyl-(2-p-tolyl-acetyl)-amino]-ethyl}-N-pyridin-4-yl-benzamide] |
| 5 to 50 µM | 0.5 to 5 µM | COc1ccccc1CC(=O)N(C)CC(N)c1ccc(C(=O)Nc2ccncc2)cc1 (centres unmarked) [Compound 425, 4-(1-Amino-2-{[2-(2-methoxy-phenyl)-acetyl]-methyl-amino}-ethyl)-N-pyridin-4-yl-benzamide] |
| 5 to 50 µM | 0.05 to 0.5 µM | COc1cccc(CC(=O)N(C)CC(N)c2ccc(C(=O)Nc3ccncc3)cc2)c1 (centres unmarked) [Compound 426, 4-(1-Amino-2-{[2-(3-methoxy-phenyl)-acetyl}-methyl-amino}-ethyl)-N-pyridin-4-yl-benzamide] |
| 5 to 50 µM | 0.05 to 0.5 µM | COc1ccc(CC(=O)N(C)CC(N)c2ccc(C(=O)Nc3ccncc3)cc2)cc1 (centres unmarked) [Compound 427, 4-(1-Amino-2-{[2-(4-methoxy-phenyl)-acetyl]-methyl-amino}-ethyl)-N-pyridin-4-yl-benzamide] |
| 5 to 50 µM | 0.5 to 5 µM | COc1ccc(C2(C(=O)N(C)CC(N)c3ccc(C(=O)Nc4ccncc4)cc3)CC2)cc1 (centres unmarked) [Compound 428, 4-(1-Amino-2-{[1-(4-methoxy-phenyl)-cyclopropanecarbonyl]-methyl-amino}-ethyl)-N-pyridin-4-yl-benzamide] |
| 5 to 50 µM | 0.05 to 0.5 µM | COc1ccc(CC(=O)N(C)CC(N)c2ccc(C(=O)Nc3ccncc3)cc2)c(OC)c1 (centres unmarked) [Compound 430, 4-(1-Amino-2-{[2-(2,4-dimethoxy-phenyl)-acetyl]-methyl-amino}-ethyl)-N-pyridin-4-yl-benzamide] |
| 0.5 to 5 µM | 0.5 to 5 µM | CN(CC(N)c1ccc(C(=O)Nc2ccncc2)cc1)C(=O)C1(c2ccc(F)cc2)CCC1 (centres unmarked) [Compound 474, 4-(1-Amino-2-{[1-(4-fluoro-phenyl)-cyclobutanecarbonyl]-methyl-amino}-ethyl)-N-pyridin-4-yl-benzamide] |
| 0.5 to 5 µM | 0.5 to 5 µM | CN(CC(N)c1ccc(C(=O)Nc2ccncc2)cc1)C(=O)C1(c2ccc(F)cc2)CCCC1 (centres unmarked) [Compound 475, 4-(1-Amino-2-{[1-(4-fluoro-phenyl)-cyclopentanecarbonyl]-methyl-amino}-ethyl)-N-pyridin-4-yl-benzamide] |
| 5 to 50 µM | 0.5 to 5 µM | CN(CC(N)c1ccc(C(=O)Nc2ccncc2)cc1)C(=O)Cc1cccc(F)c1F (centres unmarked) [Compound 477, 4-(1-Amino-2-{[2-(2,3-difluoro-phenyl)-acetyl]-methyl-amino}-ethyl)-N-pyridin-4-yl-benzamide] |
| 5 to 50 µM | 0.5 to 5 µM | CN(CC(N)c1ccc(C(=O)Nc2ccncc2)cc1)C(=O)Cc1cc(F)ccc1F (centres unmarked) [Compound 478, 4-(1-Amino-2-{[2-(2,5-difluoro-phenyl)-acetyl]-methyl-amino}-ethyl)-N-pyridin-4-yl-benzamide] |
| 5 to 50 µM | 0.5 to 5 µM | CN(CC(N)c1ccc(C(=O)Nc2ccncc2)cc1)C(=O)Cc1ccc(F)cc1F (centres unmarked) [Compound 479, 4-(1-Amino-2-{[2-(2,4-difluoro-phenyl)-acetyl]-methyl-amino}-ethyl)-N-pyridin-4-yl-benzamide] |
| 5 to 50 µM | 0.5 to 5 µM | CN(CC(N)c1ccc(C(=O)Nc2ccncc2)cc1)C(=O)C1(c2ccc(F)cc2F)CC1 (centres unmarked) [Compound 481, 4-(1-Amino-2-{[1-(2,4-difluoro-phenyl)-cyclopropanecarbonyl]-methyl-amino}-ethyl)-N-pyridin-4-yl-benzamide] |
| 0.5 to 5 µM | 0.5 to 5 µM | CN(CC(N)c1ccc(C(=O)Nc2ccncc2)cc1)C(=O)C(C)(C)c1ccc(F)c(F)c1 (centres unmarked) [Compound 485, 4-(1-Amino-2-{[2-(3,4-difluoro-phenyl)-2-methyl-propionyl]-methyl-amino}-ethyl)-N-pyridin-4-yl-benzamide] |
| 0.5 to 5 µM | 0.5 to 5 µM | CN(CC(N)c1ccc(C(=O)Nc2ccncc2)cc1)C(=O)C1(c2ccc(F)c(F)c2)CC1 (centres unmarked) [Compound 486, 4-(1-Amino-2-{[1-(3,4-difluoro-phenyl)-cyclopropanecarbonyl]-methyl-amino}-ethyl)-N-pyridin-4-yl-benzamide] |
| 0.5 to 5 µM | 0.5 to 5 µM | CN(CC(N)c1ccc(C(=O)Nc2ccncc2)cc1)C(=O)C1(c2ccc(F)c(F)c2)CCC1 (centres unmarked) [Compound 487, 4-(1-Amino-2-{[1-(3,4-difluoro-phenyl)-cyclobutanecarbonyl]-methyl-amino}-ethyl)-N-pyridin-4-yl-benzamide] |
| 0.5 to 5 µM | 0.5 to 5 µM | CN(CC(N)c1ccc(C(=O)Nc2ccncc2)cc1)C(=O)C1(c2ccc(F)c(F)c2)CCCC1 (centres unmarked) [Compound 488, 4-(1-Amino-2-{[1-(3,4-difluoro-phenyl)-cyclopentanecarbonyl]-methyl-amino}-ethyl)-N-pyridin-4-yl-benzamide] |
| 5 to 50 µM | 0.5 to 5 µM | CN(CC(N)c1ccc(C(=O)Nc2ccncc2)cc1)C(=O)Cc1ccc(Cl)cc1Cl (centres unmarked) [Compound 490, 4-(1-Amino-2-{[2-(2,4-dichloro-phenyl)-acetyl]-methyl-amino}-ethyl)-N-pyridin-4-yl-benzamide] |
| 5 to 50 µM | 0.5 to 5 µM | CN(CC(N)c1ccc(C(=O)Nc2ccncc2)cc1)C(=O)Cc1ccc(Cl)c(Cl)c1 (centres unmarked) [Compound 491, 4-(1-Amino-2-{[2-(3,4-dichloro-phenyl)-acetyl]-methyl-amino}-ethyl)-N-pyridin-4-yl-benzamide] |
| 5 to 50 µM | 0.5 to 5 µM | CN(CC(N)c1ccc(C(=O)Nc2ccncc2)cc1)C(=O)C1(c2ccc(Cl)c(Cl)c2)CC1 (centres unmarked) [Compound 493, 4-(1-Amino-2-{[1-(3,4-dichloro-phenyl)-cyclopropanecarbonyl]-methyl-amino}-ethyl)-N-pyridin-4-yl-benzamide] |
| 5 to 50 µM | 0.5 to 5 µM | CN(CC(N)c1ccc(C(=O)Nc2ccncc2)cc1)C(=O)C1(c2ccc(Cl)c(Cl)c2)CCC1 (centres unmarked) [Compound 494, 4-(1-Amino-2-{[1-(3,4-dichloro-phenyl)-cyclobutanecarbonyl]-methyl-amino}-ethyl)-N-pyridin-4-yl-benzamide] |
| 5 to 50 µM | 0.5 to 5 µM | CN(CC(N)c1ccc(C(=O)Nc2ccncc2)cc1)C(=O)C1(c2ccc(Cl)cc2Cl)CC1 (centres unmarked) [Compound 495, 4-(1-Amino-2-{[1-(2,4-dichloro-phenyl)-cyclopropanecarbonyl]-methyl-amino}-ethyl)-N-pyridin-4-yl-benzamide] |
